The values that follow come from PMC4660370 (Nature Communications, 2015).

Assay [1] concerns the target T1, AgIMPDH (Eremothecium gossypii, UniProt Q756Z6). In words: IMPDH activity assay and enzyme kinetics (NADH absorbance at 340 nm), AgIMPDH. Format: biochemical, A. gossypii. The conditions noted are these: for effect on AgIMPDH catalytic activity in vitro: adenine nucleotides; for α (substrate–inhibitor heterotropic cooperative interaction) / β (fractional activity of the ternary enzyme–substrate-inhibitor complex): mixed inhibition model. As for the experimental part: (§1) IMPDH activity was assayed by monitoring the reduction of NAD^+ to NADH and the subsequent increase in absorbance at 340 nm in buffer: 100 mM Tris-HCl, 100 mM KCl, 2 mM DTT pH 8.0. […] When Mg^+2 was included in the reaction, the total concentration of MgCl2 was 5 mM. The experimental data were fitted to the Michaelis–Menten equation of enzyme kinetics using the OriginPro software (OriginLab Corporation), to obtain the maximum apparent initial velocity (Vmax^app) and the apparent Michaelis–Menten constant (KM^app):
(§2) Following this equation, the global nonlinear regression analysis of Vmax^app and KM^app, as a function of the inhibitor concentration, allowed the intrinsic Michaelis–Menten constant (KM) and inhibition constant (Ki) for competitive inhibition to be determined. The substrate–inhibitor heterotropic cooperative interaction and the fractional activity of the ternary enzyme–substrate–inhibitor complex, α and β respectively, were estimated using a mixed inhibition model:
(§3) The constant α reflects the effect of the inhibitor on the apparent affinity of the enzyme for the substrate.

A further assay has as its target T2, HsIMPDH2 (Homo sapiens, UniProt P12268).
T2 construct: His8 (modified pET15b vector, TEV site) (N); made in house
The assay is described as follows: IMPDH activity assay and enzyme kinetics, HsIMPDH2. Format: biochemical. The settings on record: for α (substrate–inhibitor heterotropic cooperative interaction) / β (fractional activity of the ternary enzyme–substrate-inhibitor complex): mixed inhibition model; for effect on catalytic activity: ATP with or without 5 mM MgCl2. As for the experimental part:
as §1, §2, §3

The next assay deals with T3, EcIMPDH (Escherichia coli, UniProt P0ADG7).
T3 construct: His8 (TEV site) (N, cleaved yes); made in house; host or cells: E. coli BL21 (DE3)
T3 sequence (P0ADG7 whole entry): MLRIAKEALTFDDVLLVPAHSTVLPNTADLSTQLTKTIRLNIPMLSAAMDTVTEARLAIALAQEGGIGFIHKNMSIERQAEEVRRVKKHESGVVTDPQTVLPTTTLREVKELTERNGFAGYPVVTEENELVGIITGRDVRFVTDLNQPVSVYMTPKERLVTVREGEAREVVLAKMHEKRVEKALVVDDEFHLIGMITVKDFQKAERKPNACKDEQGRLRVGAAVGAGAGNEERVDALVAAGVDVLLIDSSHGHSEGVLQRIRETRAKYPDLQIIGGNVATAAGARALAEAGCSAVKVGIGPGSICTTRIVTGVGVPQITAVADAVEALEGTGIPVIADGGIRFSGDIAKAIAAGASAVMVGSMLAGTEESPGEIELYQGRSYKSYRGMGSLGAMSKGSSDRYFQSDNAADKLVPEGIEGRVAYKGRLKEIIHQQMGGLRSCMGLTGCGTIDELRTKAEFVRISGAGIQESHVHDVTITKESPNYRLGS
The assay is described as follows: biochemical. The format is biochemical. The settings on record: for effect on catalytic activity: ATP with or without 5 mM MgCl2. As to the method:
as §1, §2, §3

In a further assay the target is T4, BsIMPDH (Bacillus subtilis, UniProt P21879).
T4 construct: His8 (TEV site) (N, cleaved yes); made in house; host or cells: E. coli BL21 (DE3)
T4 sequence (P21879 whole entry): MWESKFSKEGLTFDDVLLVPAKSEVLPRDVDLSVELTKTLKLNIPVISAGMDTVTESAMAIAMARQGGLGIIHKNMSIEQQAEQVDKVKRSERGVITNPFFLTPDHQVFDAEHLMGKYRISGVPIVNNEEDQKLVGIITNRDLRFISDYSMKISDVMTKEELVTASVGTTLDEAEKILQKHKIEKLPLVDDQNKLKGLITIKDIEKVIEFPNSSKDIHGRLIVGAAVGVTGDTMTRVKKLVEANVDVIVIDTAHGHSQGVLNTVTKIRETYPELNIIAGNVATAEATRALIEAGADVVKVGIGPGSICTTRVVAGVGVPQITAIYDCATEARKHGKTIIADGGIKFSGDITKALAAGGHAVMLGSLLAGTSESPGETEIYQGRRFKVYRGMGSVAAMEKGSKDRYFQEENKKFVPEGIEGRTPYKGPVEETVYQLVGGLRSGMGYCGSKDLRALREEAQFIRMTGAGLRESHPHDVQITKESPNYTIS
The assay is described as follows: biochemical. The format is biochemical, Bacillus subtillis. The conditions noted are these: for effect on catalytic activity: ATP with or without 5 mM MgCl2. As for the experimental part: as §1, §2, §3

A further assay has as its target T5, HsIMPDH1 (Homo sapiens, UniProt P20839).
T5 construct: His8 (modified pET15b vector, TEV site) (N); made in house
The assay is described as follows: IMPDH activity assay and enzyme kinetics, HsIMPDH1. Format: biochemical. The settings on record: for α (substrate–inhibitor heterotropic cooperative interaction) / β (fractional activity of the ternary enzyme–substrate-inhibitor complex): mixed inhibition model; for effect on catalytic activity: ATP with or without 5 mM MgCl2. As for the experimental part:
as §1, §2, §3

A further assay relates to AgIMPDH ΔBateman. In words: IMPDH activity assay, mutant lacking the Bateman domain. The format is biochemical, A. gossypii. The settings on record: 2 mM nucleotide. As to the method: IMPDH activity was assayed by monitoring the reduction of NAD^+ to NADH and the subsequent increase in absorbance at 340 nm in buffer: 100 mM Tris-HCl, 100 mM KCl, 2 mM DTT pH 8.0. […] When Mg^+2 was included in the reaction, the total concentration of MgCl2 was 5 mM. The experimental data were fitted to the Michaelis–Menten equation of enzyme kinetics using the OriginPro software (OriginLab Corporation), to obtain the maximum apparent initial velocity (Vmax^app) and the apparent Michaelis–Menten constant (KM^app): […]

Assay [2] has as its target T1, AgIMPDH. The conditions noted are these: GMP titration, WT.
Protocol: (§4) Standard ITC experiments were performed using an AutoITC200 system (Malvern Instruments). […] The resulting heats were integrated and fitted to a single binding site model implemented in the software package Origin (OriginLab Corporation).
In the next assay the target is AgIMPDH-ΔBateman (Eremothecium gossypii, UniProt Q756Z6, DEL116-235/INS115SQDG). In words: Isothermal titration calorimetry, AgIMPDH-ΔBateman. Format: binding, A. gossypii.
Assay [3] addresses T1, AgIMPDH. In words: biochemical.
Protocol: as §4

Where two headings read alike, the source gives them in different places.

T5 sequence (P20839 whole entry): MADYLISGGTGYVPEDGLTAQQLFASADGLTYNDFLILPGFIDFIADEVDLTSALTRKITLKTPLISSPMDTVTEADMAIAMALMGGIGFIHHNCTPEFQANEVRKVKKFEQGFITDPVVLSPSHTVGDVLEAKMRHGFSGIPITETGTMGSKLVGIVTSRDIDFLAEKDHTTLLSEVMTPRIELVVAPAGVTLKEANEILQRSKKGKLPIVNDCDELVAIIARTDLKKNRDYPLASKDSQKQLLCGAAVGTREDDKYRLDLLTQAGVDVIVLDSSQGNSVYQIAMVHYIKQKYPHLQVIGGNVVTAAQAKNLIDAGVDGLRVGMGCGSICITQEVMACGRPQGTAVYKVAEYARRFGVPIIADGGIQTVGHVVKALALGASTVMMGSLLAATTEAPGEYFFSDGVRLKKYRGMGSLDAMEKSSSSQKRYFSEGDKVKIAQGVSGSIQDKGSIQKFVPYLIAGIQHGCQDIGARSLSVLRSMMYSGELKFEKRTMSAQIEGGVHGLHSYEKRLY
Protocol for AgIMPDH-ΔBateman: as §4

Turning to `Nc1ncnc2c1ncn2[C@@H]1O[C@H](COP(=O)(O)O)[C@@H](O)[C@H]1O` [AMP], the “effect on AgIMPDH catalytic activity in vitro” value (from here on “effect … in vitro”) on AgIMPDH [1] is recorded as “did not exert any significant effect”.
Turning to `Nc1nc2c(ncn2[C@@H]2O[C@H](COP(=O)(O)OP(=O)(O)O)[C@@H](O)[C@H]2O)c(=O)[nH]1` [GDP, guanosine-5′-diphosphate], the “Inhibition (type)” value is recorded as “Mixed type” at HsIMPDH2; “Mixed type” at AgIMPDH [1]; “No” at EcIMPDH; “Mixed type—weak” on BsIMPDH; “Mixed type” on HsIMPDH1. In addition, the Ki amounted to 610 ± 60 µM at HsIMPDH2, 210 ± 40 µM on AgIMPDH [1] (read-out: Ki), 2300 ± 400 µM at BsIMPDH and 230 ± 40 µM on HsIMPDH1. The “α (substrate–inhibitor heterotropic cooperative interaction)” value at HsIMPDH2 is 6.6±0.8; on AgIMPDH [1], 6.5±0.8; on BsIMPDH (mixed inhibition model), 2.9±0.4; on HsIMPDH1, 4.7±0.7. The “β (fractional activity of the ternary enzyme–substrate-inhibitor complex)” value at HsIMPDH2 is on record as 0.14±0.05; on AgIMPDH [1], 0.033±0.005; at BsIMPDH (mixed inhibition model), 0.8±0.1; at HsIMPDH1, 0.12±0.04. Also, the “effect on enzymatic activity of ΔBateman mutant (KM app/KM)” value (from here on “effect … of ΔBateman mutant (KM app/KM)”) with AgIMPDH ΔBateman is reported as “not significantly affected”.
As for `Nc1ncnc2c1ncn2[C@@H]1O[C@H](COP(=O)(O)OP(=O)([O-])OP(=O)([O-])O)[C@@H](O)[C@H]1O.[Mg+2]` [Mg-ATP], the “effect on catalytic activity” value at HsIMPDH2, on EcIMPDH, on BsIMPDH and on HsIMPDH1 was “neither ATP nor Mg-ATP showed a significant effect” in each case. Moreover, the “effect on catalytic activity of AgIMPDH (Vmax app/Vmax, KM app/KM)” value at AgIMPDH [1] (total MgCl2 5 mM) is “not affected”.
For `Nc1nc2c(ncn2[C@@H]2O[C@H](COP(=O)(O)O)[C@@H](O)[C@H]2O)c(=O)[nH]1` [GMP, guanosine-5′-monophosphate], the “Inhibition (type)” value at HsIMPDH2, at AgIMPDH [1], on EcIMPDH, at BsIMPDH and at HsIMPDH1 was “Competitive” throughout. Also, the Ki on AgIMPDH [1] was 600 ± 100 µM; on EcIMPDH, 1100 ± 100 µM; at BsIMPDH it was 420 ± 70 µM. Moreover, in the assay on AgIMPDH ΔBateman, the “effect … of ΔBateman mutant (KM app/KM)” value is “inhibited the wild-type and ΔBateman enzymes in a similar manner”. Further, the “n (binding stoichiometry)” value at AgIMPDH [2] turned out to be 0.9; on AgIMPDH-ΔBateman (GMP titration, ΔBateman), 1.0. For the same molecule, the ΔH was -9.1 kcal/mol at AgIMPDH [2] and -7.7 kcal/mol at AgIMPDH-ΔBateman (GMP titration, ΔBateman). The Kd was determined as 22 µM at AgIMPDH-ΔBateman and 24 µM at AgIMPDH [3].
Consider `Nc1ncnc2c1ncn2[C@@H]1O[C@H](COP(=O)(O)OP(=O)(O)O)[C@@H](O)[C@H]1O` [ADP], for which the “effect … in vitro” value at AgIMPDH [1] is on record as “did not exert any significant effect”.
On to `Nc1ncnc2c1ncn2[C@@H]1O[C@H](COP(=O)(O)OP(=O)(O)OP(=O)(O)O)[C@@H](O)[C@H]1O` [ATP], for which the “effect on catalytic activity” value on HsIMPDH2, at EcIMPDH, at BsIMPDH and at HsIMPDH1 was “neither ATP nor Mg-ATP showed a significant effect” in each case. Further, the “effect … in vitro” value on AgIMPDH [1] is “did not exert any significant effect”.
Turning to `Nc1nc2c(ncn2[C@@H]2O[C@H](COP(=O)(O)OP(=O)(O)OP(=O)(O)O)[C@@H](O)[C@H]2O)c(=O)[nH]1` [GTP, guanosine-5′-triphosphate], the “Inhibition (type)” value on HsIMPDH2 is given as “Mixed type”; on AgIMPDH [1], “Mixed type”; at EcIMPDH it was “Competitive”; at BsIMPDH, “No”; at HsIMPDH1, “Mixed type”. The results for the Ki at HsIMPDH2, on AgIMPDH [1] (read-out: Ki) and on HsIMPDH1 were 480 ± 60 µM, 160 ± 40 µM and 540 ± 60 µM, respectively. The “α (substrate–inhibitor heterotropic cooperative interaction)” value is reported as 3.0±0.4 on HsIMPDH2, 4.1±0.7 on AgIMPDH [1] and 3.8±0.5 at HsIMPDH1. Also, the “β (fractional activity of the ternary enzyme–substrate-inhibitor complex)” value on HsIMPDH2 amounted to 0.51±0.08; on AgIMPDH [1] it was 0.24±0.05; at HsIMPDH1 it was 0.11±0.04. Further, the “effect … of ΔBateman mutant (KM app/KM)” value in the assay on AgIMPDH ΔBateman is reported as “not significantly affected”.

By Ki is commonly meant the equilibrium dissociation constant of an inhibitor or competing ligand from its target. Usually Kd stands for a measure of binding affinity in units of concentration.
